According to article PMC11989212, “Experimental Conditions to Retrieve Intrinsic Cooperativity α Directly from Single Binding Assay Data Exemplified by the Ternary Complex Formation of FKBP12, MAPRE1 and Macrocyclic Molecular Glues” (International Journal of Molecular Sciences, 2025):
Entries after “also recorded” stand apart in the source; their conditions may differ.

Legend:
[1] = molecular target: T1, MAPRE1 in the presence of FKBP12 (Homo sapiens, UniProt P62942+Q15691); test: Spectral shift target engagement assay, binding to MAPRE1 in the presence of 10 μM FKBP12 (ternary)
T1 construct: His-tag (N)
T1 sequence (P62942 whole entry, one chain of several): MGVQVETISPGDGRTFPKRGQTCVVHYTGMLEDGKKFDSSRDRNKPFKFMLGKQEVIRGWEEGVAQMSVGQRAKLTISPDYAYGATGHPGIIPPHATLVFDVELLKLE
From the text: (§1) Our method of choice is the spectral shift method, which monitors binding events on the target isothermally and in equilibrium via an environment-sensitive near-infrared fluorophore. In the case of target engagement, either the proximity of the ligand towards the dye or structural changes occurring in the target as a result of binding lead to a change in the chemical environment of the fluorophore. Those changes affect the physiochemical properties of the reporter fluorophore and translate into either blue or red shifts (or peak broadening) of emission peaks upon ligand binding, which can be sensitively monitored by simultaneously recording the fluorescence at two wavelengths (i.e., at 650 nm and 670 nm). Calculating the ratio between the two fluorescence channels then allows to monitor subtle emission shifts that occur as a result of target engagement. Affinity measurements can then be performed by recording the spectral shift as a function of ligand concentration.
Binding study through MAPRE1: MAPRE1 was labeled via lysines using an NHS-conjugated dye. The final concentration of MAPRE1NHS (referring to [Ttot]) was 5 nM. Compounds could be titrated up to a concentration of 200 μM (referring to [Ltot]). […] However more accuracy could only be achieved at higher ligand concentrations—ideally at full target saturation. However, this was experimentally infeasible due to assay conditions (i.e., the requirement of maintaining a certain DMSO concentration or avoiding solubility issues of the ligand). Although the determined KT,1 values of binding to MAPRE1 are only approximations, their relative ranking reflects the underlying differences in the affinity of the ligands L to MAPRE1. Performing these experiments in duplicates confirmed the high signal-to-noise ratio, i.e., there was no significant deviation between the two curves, indicating a high accuracy of the interpolated EC50 values. Due to the low [Ttot] = 5 nM, this value coincides with KT,1 (1.8 mM − 0.005 mM/2 ≈ 1.8 mM). […] Consequently, KT,2 corresponds to 173 nM and not 177.5 nM.
(§2) His-tagged FKBP12 was labeled using the His-Tag Labeling Kit RED-tris-NTA 2nd Generation (MO-L018; NanoTemper Technologies GmbH). The affinity between NTA dye and the His-tag of FKBP12 was determined as 7 nM. MAPRE1 was labeled using the Protein Labeling Kit RED-NHS 2nd Generation (MO-L011; NanoTemper Technologies GmbH). In brief, 10 µM of MAPRE1 was incubated with a 3-fold molar excess of fluorophore for 30 min. The unreacted fluorophore was removed by performing a size exclusion purification (B-column). Collecting the protein fraction yielded 1.8 µM labeled MAPRE1, with a degree of labeling of 0.8, as determined on a Nanodrop.
A 1:2 dilution series of all compounds (starting from the 10 mM stock concentration) was prepared in pure DMSO. Each concentration was diluted 25-fold with assay buffer (20 mM HEPES, pH 7.4, 150 mM NaCl, 1 mM DTT (all from Carl Roth, Karlsruhe, Germany), and 0.01% Pluronic F-127 (Sigma Aldrich, Taufkirchen, Germany)). Next, 10 µL from each of the prepared ligand dilutions was transferred into an empty well on a Dianthus Microwell Plate (DI-P001A). Another 10 µL of 2-fold concentrated labeled protein (either in the absence or the presence of 20 µM counter protein, both in assay buffer then yielded the final assay concentrations. Interaction measurements were prepared in duplicates for each condition. For binary interactions of compounds with MAPRE1, a final target concentration of 5 nM and a highest ligand concentration of 50 µM was prepared. For ternary interactions of compounds and MAPRE1 in the presence of 10 µM unlabeled FKBP12, the highest ligand concentration was increased to 200 µM, the highest concentration achievable while maintaining a constant 2% DMSO concentration. For all interactions measured via FKBP12, the target was prepared at a final concentration of 40 nM, supplemented with 5 nM NTA fluorophore. […]

[2] = molecular target: FKBP12 in the presence of MAPRE1 (Homo sapiens, UniProt P62942+Q15691); test: Spectral shift target engagement assay, binding to FKBP12 in the presence of 10 μM MAPRE1 (ternary); conditions: 40 nM FKBP12-NTA, 10 μM MAPRE1; read-out: EC50 of the %Cbound, ternary curve (measured)
FKBP12 in the presence of MAPRE1, sequence (P62942 whole entry, one chain of several): as above
From the text: as §1
(§3) Binding studies through FKBP12: To monitor the binding of R,--SLF-11 by the stronger binding FKBP12 in the absence and in the presence of 10 μM MAPRE1 via %Cbound, binary and %Cbound, ternary, respectively, the concentration of reversibly NTA-labeled FKBP12 was limited to [Ctot] = 40 nM. […] In contrast to the experimental setup in the previous two binding experiments with monitoring through the weaker binding protein MAPRE1, where the applied protein concentrations were optimally chosen, this is not the case for the binding experiment through the stronger binder FKBP12. First of all, the applied excess of T with [Ttot] = 10 μM is roughly 20000-fold off of the proposed 100 times KT,1 threshold, which would correspond to 180 mM. Only under such excess conditions of T can the equilibrium of forming TL under the constraint that all ligand L is bound to T be reached to ensure that [Ltot] approaches the “ligand” concentration [TL]. […] If KC,2 is sufficiently high, the 20 nM deviation to correct for the protein concentration could be neglected. However, the resulting calculated value for KC,2 is 0.023 nM, accounting for the cooperativity α = 10,405 and KC,1 = 234 nM as derived by the MAPRE1 experiment. This value is far below the applied protein concentration of [Ctot] = 40 nM and makes it infeasible to estimate KC,2 from the EC50 of the %Cbound, ternary curve. Consequently, the EC50 shifts, meaning the apparent cooperativity, from monitoring the binding by the stronger binding protein C are diverging from the underlying intrinsic cooperativity α. […] The deviation of calculated (254 nM/24.2 nM = 10.5) and measured apparent cooperativity (254 nM/66 nM = 3.8) can be explained by a negative cooperativity induced by the His6-NTA tag of FKBP12. Studies to lower [Ctot] and identify a better position for the spectral shift tag on FKBP12 are ongoing (Figure 6a).
as §2
(§4) A 1:2 dilution series of all compounds (starting from the 10 mM stock concentration) was prepared in pure DMSO. Each concentration was diluted 25-fold with assay buffer (20 mM HEPES, pH 7.4, 150 mM NaCl, 1 mM DTT (all from Carl Roth, Karlsruhe, Germany), and 0.01% Pluronic F-127 (Sigma Aldrich, Taufkirchen, Germany)). Next, 10 µL from each of the prepared ligand dilutions was transferred into an empty well on a Dianthus Microwell Plate (DI-P001A). […]

MAPRE1 = molecular target: T2, MAPRE1 (Homo sapiens, UniProt Q15691); test: Spectral shift target engagement assay, binary binding to MAPRE1; conditions: up to [Ltot] = 200 μM
T2 construct: His-tag (N)
T2 sequence (Q15691 1-268): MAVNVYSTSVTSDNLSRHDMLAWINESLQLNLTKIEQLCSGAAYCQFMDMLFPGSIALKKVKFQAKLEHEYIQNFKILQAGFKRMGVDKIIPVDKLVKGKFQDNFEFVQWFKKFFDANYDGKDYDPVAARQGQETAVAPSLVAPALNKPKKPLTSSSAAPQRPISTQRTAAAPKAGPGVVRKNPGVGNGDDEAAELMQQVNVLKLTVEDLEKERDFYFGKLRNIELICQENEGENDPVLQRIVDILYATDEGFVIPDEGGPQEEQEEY

[3] = system: FKBP12:R,S-SLF-X:MAPRE1 ternary complex; parameters: method as in PMID 40059881; conditions: TR-FRET proximity assay, reported earlier; cited from earlier work
FKBP12 [4] = molecular target: T3, FKBP12 (Homo sapiens, UniProt P62942); parameters: method as in PMID 40059881; conditions: TR-FRET competitive binding assay from previous work; read-out: EC50_FKBP12; cited from earlier work
T3 sequence (P62942 whole entry, species assumed): as the sequence (P62942 whole entry, one chain of several) above

FKBP12 [5] = molecular target: T3, FKBP12; test: Spectral shift target engagement assay, binary binding to FKBP12; conditions: 40 nM FKBP12-NTA; KC,1 = EC50 − [Ctot]/2
From the text: as §1, §3, §2, §4

In the case of COc1ccc(CCC2OC(=O)C3CCCCN3C(=O)C(=O)C(C)(C)COC(=O)C(C)NC(=O)C3CC(O)CN3C(=O)COc3cccc2c3)cc1OC (stereo not shown) [R,S-SLF-12], the “ternary binding to MAPRE1” value ([1]; 10 μM FKBP12) is reported as “Neither binary nor ternary binding”, the “Ratio [Ctot]/KC,1” value ([1]; [Ctot] = 10 μM FKBP12) is reported as 769 and the EC50 [2] is reported as 30 nM. For the same compound, the “binary binding to MAPRE1 (%Tbound, binary)” value (MAPRE1) was “no binding; also recorded: Neither binary nor ternary binding”, the “TR-FRET Recruitment Assay (%Amax)” value [3] was 0% and the EC50 (FKBP12 [4]) was 43 nM. For the same compound, the Kd (FKBP12 [5]) was 13 nM.
